From patent US20220380371A1, “MLL1 INHIBITORS AND ANTI-CANCER AGENTS” (NOVARTIS AG, priority 2019, published 2022)
Read-outs that look alike come from different tables or passages of the source.

Assays:
H3K4me3 in MV4-11 cells = test: MV4-11 H3K4me3 Cellular ELISA Assay; format: cell-based; conditions: Homo sapiens, MV4-11, 48 h
Outline: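 MV4-11 cells were treated for 48 h with 12-point 1:3 compound dilutions (from 10 mM stock), then histones were acid-extracted with 0.5M HCl and neutralized. H3K4me3 and total H3 were measured by HRP chemiluminescent ELISA, and inhibition versus DMSO after H3 normalization was curve-fitted for IC50.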

[1] = target: wild type MLL1 four-member complex (MLL1-4C) (Homo sapiens, UniProt Q03164); test: MLL1 LC-MS Assay; format: biochemical
Outline: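 Compound pre-incubated 20 min with MLL1-4C and SAM, then H3[1-21]-biotin (H3K4me0) substrate added; final 30 nM enzyme, 2.5 μM SAM, 10 μM peptide in Tris pH 8.0 with MgCl2, DTT, Tween 20, BSA. After 120 min at rt, TFA-quenched SAH quantified by LC-MS/MS with d4-SAH; IC50 from dose-response fit.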

MV4-11 cells = test: MV4-11 6-Day Cell Growth CTG (CellTiter-Glo) Assay; format: cell-based; conditions: Homo sapiens, MV4-11, 144 h, MV4-11 cell growth CellTiter-Glo, 6 days
Outline: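 MV4-11 AML cells (RPMI 1640, 10% FBS) seeded at 300 cells/well and exposed for 6 days at 37 °C to a 12-point, 1:3 compound series starting at 50 μM final. Viable cells read by CellTiter-Glo luminescence; percent inhibition versus DMSO-only wells fitted to dose-response curves for IC50.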

[2] = target: wild type MLL1 five-member complex (MLL1-5C) (Homo sapiens, UniProt Q03164); test: MLL1 Flashplate Assay; format: biochemical; conditions: read-out: MLL1 flash plate

| Structure (SMILES) | IC50 (H3K4me3 in MV4-11 cells) [nM] | IC50 ([1]; read-out: LCMS) [nM] | IC50 (MV4-11 cells) [nM] | IC50 [2] [nM] | IC50 ([1]; read-out: MLL1 LCMS) [nM] |
| --- | --- | --- | --- | --- | --- |
| Nc1ncnc2c1ncn2Cc1c(N2CC[C@](N)(C(=O)NC3CC3)C2)ccc2ccoc12 [Example 112] | < 1900 | 50 to 100 | < 2000 | < 60 | – |
| Nc1ncnc2c1ncn2Cc1c(N2CC[C@](N)(C(=O)NC3CC3)C2)ccc(F)c1C(F)(F)F [Example 116, (R)-3-amino-1-(2-((6-amino-9H-purin-9-yl)methyl)-4-fluoro-3-(trifluoromethyl)phenyl)-N-cyclopropylpyrrolidine-3-carboxamide] | < 1900 | < 50 | < 2000 | < 60 | – |
| Nc1ncnc2c1ncn2Cc1c(N2CC[C@](N)(C(=O)NCc3cccnn3)C2)ccc(F)c1C(F)(F)F [Example 118] | < 1900 | 50 to 100 | < 2000 | < 60 | – |
| N#CCC1CCN(C(=O)[C@@]2(N)CCN(c3ccc(F)c(C(F)(F)F)c3Cn3cnc4c(N)ncnc43)C2)CC1 [Example 119] | < 1900 | 50 to 100 | < 2000 | < 60 | – |
| Nc1ncnc2c1ncn2Cc1c(N2CC[C@](N)(C(=O)Nc3cc(C4CC4)n[nH]3)C2)ccc(F)c1C(F)(F)F [Example 123] | < 1900 | > 100 | < 2000 | < 60 | – |
| Nc1ncnc2c1ncn2Cc1c(N2CC[C@](N)(C(=O)N[C@@H]3C[C@H]3CO)C2)ccc(F)c1C(F)(F)F [Example 127] | < 1900 | < 50 | < 2000 | < 60 | – |
| Nc1ncnc2c1ncn2Cc1c(N2CC[C@](N)(C(=O)N3CCn4nncc4C3)C2)ccc(F)c1C(F)(F)F [Example 128] | < 1900 | > 100 | > 3000 | > 100 | – |
| C[C@H]1CN(C(=O)[C@@]2(N)CCN(c3ccc(F)c(C(F)(F)F)c3Cn3cnc4c(N)ncnc43)C2)CCO1 [Example 131] | < 1900 | 50 to 100 | < 2000 | < 60 | – |
| N#CC1CN(C(=O)[C@@]2(N)CCN(c3ccc(F)c(C(F)(F)F)c3Cn3cnc4c(N)ncnc43)C2)C1 [Example 132] | < 1900 | 50 to 100 | < 2000 | < 60 | – |
| Nc1nccc(CNC(=O)[C@@]2(N)CCN(c3ccc(F)c(C(F)(F)F)c3Cn3cnc4c(N)ncnc43)C2)n1 [Example 133] | < 1900 | 50 to 100 | < 2000 | 60 to 100 | – |
| Nc1ncnc2c1ncn2Cc1c(N2CC[C@](N)(C(=O)N3CCc4nocc4C3)C2)ccc(F)c1C(F)(F)F [Example 134] | < 1900 | > 100 | < 2000 | < 60 | – |
| C[C@@H]1CN(C(=O)[C@@]2(N)CCN(c3ccc(F)c(C(F)(F)F)c3Cn3cnc4c(N)ncnc43)C2)CCO1 [Example 135] | < 1900 | 50 to 100 | < 2000 | < 60 | – |
| Nc1ncnc2c1ncn2Cc1c(N2CC[C@](N)(C(=O)N3CCC[C@@H](O)C3)C2)ccc(F)c1C(F)(F)F [Example 138] | < 1900 | 50 to 100 | < 2000 | < 60 | – |
| CCn1ncnc1CNC(=O)[C@@]1(N)CCN(c2ccc(F)c(C(F)(F)F)c2Cn2cnc3c(N)ncnc32)C1 [Example 140] | < 1900 | > 100 | < 2000 | 60 to 100 | – |
| Nc1ncnc2c1ncn2Cc1c(Br)c(Cl)cc(Cl)c1N1CC[C@](N)(C(=O)NC2CC2)C1 [Example 143] | < 1900 | – | < 2000 | < 60 | < 50 |
| CCc1c(Cl)ccc(N2CC[C@](N)(C(=O)NCCS(=O)(=O)c3ccccc3)C2)c1Cn1cnc2c(N)ncnc21 [Example 145] | < 1900 | – | < 2000 | < 60 | < 50 |
| Nc1ncnc2c1ncn2Cc1c(-c2cccc3c2CCCC3)cc(Cl)cc1N1CC[C@](N)(C(=O)NC2CC2)C1 [Example 150] | 1900 to 3000 | – | < 2000 | < 60 | < 50 |
| CCc1cc(Cl)cc(N2CC[C@](N)(C(=O)N3CCS(=O)(=O)CC3)C2)c1Cn1cnc2c(N)ncnc21 [Example 151] | < 1900 | – | < 2000 | < 60 | > 100 |
| Nc1ncnc2c1ncn2Cc1c(Cl)c(Cl)cc(F)c1N1CCC(N)(C(=O)NC2CC2)C1 (centres unmarked) [Example 152] | < 1900 | – | < 2000 | < 60 | > 100 |
| CCc1c(Cl)ccc(N2CC[C@](N)(C(=O)NC3CCS(=O)(=O)CC3)C2)c1Cn1cnc2c(N)ncnc21 [Example 153] | < 1900 | – | < 2000 | 60 to 100 | < 50 |
| CCc1ccc(Cl)c(N2CC[C@](N)(C(=O)NC3CC3)C2)c1Cn1cnc2c(N)ncnc21 [Example 154] | < 1900 | – | < 2000 | > 100 | < 50 |
| CCc1c(Cl)ccc(N2CC[C@](N)(C(=O)N3CCS(=O)(=O)CC3)C2)c1Cn1cnc2c(N)ncnc21 [Example 155] | < 1900 | – | < 2000 | > 100 | > 100 |

The next lines start with the values.

| IC50 (H3K4me3 in MV4-11 cells) [nM] | IC50 ([1]; read-out: LCMS) [nM] | IC50 (MV4-11 cells) [nM] | IC50 [2] [nM] | IC50 ([1]; read-out: MLL1 LCMS) [nM] | Structure (SMILES) |
| --- | --- | --- | --- | --- | --- |
| < 1900 | < 50 | < 2000 | < 60 | – | CS[C@H]1C[C@H](NC(=O)[C@@]2(N)CCN(c3ccc(F)c(C(F)(F)F)c3Cn3cnc4c(N)ncnc43)C2)C1 [Example 117] |
| < 1900 | < 50 | < 2000 | < 60 | – | CC(C)(C#N)CNC(=O)[C@@]1(N)CCN(c2ccc(F)c(C(F)(F)F)c2Cn2cnc3c(N)ncnc32)C1 [Example 125] |
| < 1900 | 50 to 100 | < 2000 | < 60 | – | N#CCN1CCN(C(=O)[C@@]2(N)CCN(c3ccc(F)c(C(F)(F)F)c3Cn3cnc4c(N)ncnc43)C2)CC1 [Example 136] |
| < 1900 | – | < 2000 | < 60 | < 50 | N#CC1CCN(C(=O)[C@@]2(N)CCN(c3ccc(F)c(C(F)(F)F)c3Cn3cnc4c(N)ncnc43)C2)C1 (some centres unmarked) [Example 141] |
| < 1900 | – | > 3000 | < 60 | < 50 | Nc1ncnc2c1ncn2Cc1c(Br)ccc(Cl)c1N1CC[C@@](N)(C(=O)O)C1 [Example 142] |
| < 1900 | – | < 2000 | < 60 | < 50 | Nc1ncnc2c1ncn2Cc1c(N2CC[C@](N)(C(=O)NC3CC3)C2)ccc(Cl)c1Cl [Example 144] |
| < 1900 | – | < 2000 | < 60 | < 50 | Nc1ncnc2c1ncn2Cc1c(N2CC[C@](N)(C(=O)NC3CC3)C2)ccc(Br)c1C(F)(F)F [Example 146] |
| < 1900 | – | < 2000 | < 60 | < 50 | Nc1ncnc2c1ncn2Cc1c(N2CC[C@](N)(C(=O)NC3CC3)C2)ccc(OC(F)(F)F)c1Br [Example 147] |
| < 1900 | – | < 2000 | < 60 | < 50 | NC(=O)[C@@]1(N)CCN(c2cc(Cl)cc(Br)c2Cn2cnc3c(N)ncnc32)C1 [Example 148] |
| < 1900 | – | < 2000 | < 60 | < 50 | CCc1c(Cl)ccc(N2CC[C@](N)(C(=O)NCCS(=O)(=O)CC)C2)c1Cn1cnc2c(N)ncnc21 [Example 149] |
